“Also recorded” adds a separate entry of the source. Where two headings read alike, the source gives them in different places.
Key:
[1] = tested on: TPA-induced inflammatory cell infiltration into the dermis; assay: Inhibition of TPA-induced inflammatory cell infiltration into the dermis of mice; type: in vivo, BALB/c mice; settings: for Emax: read-out: Emax (% inhibition); for Relative potency: hydrocortisone acetate = 1.0; for Potency for inhibition of TPA-induced inflammatory cell infiltration (in words): ranking in text
Description: (§1) The mice were housed in stainless steel cages, 6 mice per cage under normal laboratory conditions (room temperature at about 22° C.) at least 7 days before the experiments for acclimatization. Food and water were allowed ad libitum throughout the experiment period. The backs of the mice were shaved with an electric clipper two days before each treatment and only those mice showing no hair regrowth were used (i.e., the mice in the resting phase of the hair growth cycle were selected). During treatment, the mice were held with their tails and put on top of the cage so that they grasped the cage and rested there. The solutions were applied to an area approximately 2 cm×2 cm on the shaved back of the mice by using a “Pipetman” to apply the solution. If auranofin ointment or ointment base was applied, the amount was standardized by using a microspatula which was crimped at one end, the ointment was then put into the ridge and the excess removed by means of another microspatula and applied sparingly twice a day. After a fixed time, the mice were killed routinely by cervical dislocation between 9 a.m. and 11 a.m. to avoid variations due to circadian rhythms, and an area (1 cm×1 cm) was excised from the centre of the treated area by scalpel and scissors. The rest of the tissues were disposed by combustion. The tissues were then fixed, embedded, sectioned and stained.
Infiltration of inflammatory cells was determined by the same image analysis system using the section taken from the block of mouse skin embedded in paraffin wax or Spurr's resin and stained with haematoxylin and eosin or toluidine blue respectively. For each section, 10 fields, unless otherwise stated, were chosen randomly and the cell density per mm^2 of field determined. The average value for the 10 fields was obtained and entered as one value for each mouse. The mean and SEM for the six mice in each treatment group were calculated.
The measurement of the inflammatory cell infiltration included the background values which included other materials in the dermis stained in the same way.
(§2) The percent inhibition of drug on TPA-induced skin responses (i.e., epidermal hyperplasia, inflammatory cell infiltration and skin-fold thickness) was calculated by using the following formula: [formula]
(§3) This provides estimates of (a) the potency, (b) the efficacy or maximum effect (Emax) and the slope of the log concentration-response curve by using Hill coefficient (γ). The Hill Equation may be expressed as follows: [formula] where IC50 is the drug concentration producing 50% of the maximal response and Emax refers to the maximal effect produced by the drug and is also termed efficacy. Efficacy is the measurement of the intrinsic ability of a drug to initiate a response once it occupies receptor sites. […] The Hill coefficient (γ) measures the slope of the dose-effect curve which can be markedly influenced by the shape of the curve that describes the binding of the drug to the receptor. For many drugs, y lies between 0.6 and 1.5. […] On the other hand, when γ is less than 1, with a shallow hyperbolic concentration effect relationship, the activity occurs over a wide range of drug levels.
(§4) In the present study, concentration-response curves were obtained for a series of corticosteroids. In these experiments, curve fitting was accomplished using a computer programme called “The Scientist” (MicroMath Scientific Software, Salt Lake City, Utah, USA.) in which the parameters, Emax, IC50 and Hill coefficient (γ) for each steroids were estimated by using non-linear regression and least square fits.
Mice were divided into treatment groups. TPA and corticosteroids were premixed to the concentrations required and applied to the backs of mice immediately.

[2] = tested on: TPA-induced epidermal hyperplasia; assay: Inhibition of TPA-induced epidermal hyperplasia (epidermal thickness) on back skin of mice; type: in vivo, BALB/c mice; settings: for Emax: read-out: Emax (% inhibition); for Relative potency: hydrocortisone acetate = 1.0
Description: as §1
Epidermal thickness was determined by image analysis. This image analysis system was a minicomputer (Tracor Northern TN8500) attached to a light microscope (Zeiss Axioplan) and a camcorder (Sony DXC-3000P). Sections were taken from each tissue block and 20 measurements were taken at fixed intervals from each section. The average value for the 20 measurements was obtained and entered as one value for each mouse. The mean and SEM for the six mice in each treatment group were calculated.
as §2, §3, §4
Mice were divided into treatment groups. TPA and corticosteroids were premixed to the concentrations required and applied to the backs of mice immediately. For those steroids not very soluble in acetone (i.e., betamethasone, dexamethasone, hydrocortisone and hydrocortisone acetate), the drugs were dissolved in 100 μL dimethylformamide before further dilution with acetone. The efficacy of corticosteroids in inhibiting epidermal hyperplasia, inflammatory cell infiltration and skin-fold thickness was assessed as described previously. Concentration-response curves were determined after computer-fitting of data.

[3] = Mus musculus, topical, read-out: IC50 (M × 10^−4), Hill equation fit, means ± SD, steroid premixed with TPA, topical
[4] = Mus musculus, from Hill equation, concentration that produced 50% of Emax, read-out: IC50 for inhibition of inflammatory cell infiltration in the dermis (M × 10^−4)
[5] = Mus musculus, read from concentration-response curve, concentration that inhibited 50% of the TPA effect, read-out: IC50 for inhibition of inflammatory cell infiltration in the dermis (M × 10^−4)
[6] = Mus musculus, topical, Hill equation fit, means ± SD, steroid premixed with TPA, topical, read-out: IC50 (M × 10^−4)
[7] = Mus musculus, Hill equation fit, means ± SD, steroid premixed with TPA, topical
[8] = Mus musculus, from Hill equation, concentration that produced 50% of Emax, read-out: IC50 for inhibition of epidermal thickening (M × 10^−4)
[9] = Mus musculus, read from concentration-response curve, concentration that inhibited 50% of the TPA effect, read-out: IC50 for inhibition of epidermal thickening (M × 10^−4)
[10] = Hill equation fit, means ± SD, steroid premixed with TPA, topical
[11] = Hill equation fit, means ± SD, steroid premixed with TPA, topical, read-out: IC50 (M × 10^−4)

Structure (SMILES)	Relative potency ([1]; from Hill-equation IC50)	Relative potency ([1]; from IC50 read from curve)	Potency for inhibition of TPA-induced inflammatory cell infiltration (in words) [1]	Relative potency ([2]; from Hill-equation IC50)	Relative potency ([2]; from IC50 read from curve)	Potency for inhibition of TPA-induced epidermal hyperplasia (in words) ([2]; ranking in text)	IC50 [1, 4] [µM]	IC50 [1, 5] [µM]	IC50 [1, 6] [µM]	Emax [1, 7] [%]	IC50 [2, 8] [µM]	IC50 [2, 9] [µM]	IC50 [2, 6] [µM]	Emax [2, 7] [%]	other results
CCC(=O)OCC(=O)[C@@]1(OC(=O)CC)[C@H](C)C[C@H]2[C@H]3[C@H]([C@@H](O)C[C@@]21C)[C@@]1(C)C=CC(=O)C=C1C[C@H]3Cl [Alclometasone dipropionate]	241.66	183.33	medium to strong potencies	41.20	70.0	medium to strong potencies	–	–	–	–	–	–	–	–	IC50 ([1]; Mus musculus, read-out: IC50 for inhibition of inflammatory cell infiltration in the dermis (M × 10^−4), from Hill equation, concentration that produced 50% of Emax): 32 µM; IC50 ([1]; Mus musculus, read-out: IC50 for inhibition of inflammatory cell infiltration in the dermis (M × 10^−4), read from concentration-response curve, concentration that inhibited 50% of the TPA effect): 60 µM; Emax ([1]; Mus musculus, topical): 82.1 ± 5.65%; IC50 [1, 3]: 32 ± 9 µM; IC50 ([2]; Mus musculus, read-out: IC50 for inhibition of epidermal thickening (M × 10^−4), from Hill equation, concentration that produced 50% of Emax): 89 µM; IC50 ([2]; Mus musculus, read-out: IC50 for inhibition of epidermal thickening (M × 10^−4), read from concentration-response curve, concentration that inhibited 50% of the TPA effect): 100 µM; Emax ([2]; Mus musculus, topical): 96.6 ± 7.9%; IC50 [2, 3]: 89 ± 30 µM
C[C@@H]1C[C@H]2[C@@H]3CCC4=CC(=O)C=C[C@]4(C)[C@@]3(F)[C@@H](O)C[C@]2(C)[C@@]1(O)C(=O)CO [Dexamethasone]	17.42	26.83	–	29.10	35.0	–	444	410	444 ± 102	99	126	200	126 ± 44	90.7 ± 5.72	–
C[C@@H]1C[C@H]2[C@@H]3C[C@H](F)C4=CC(=O)C=C[C@]4(C)[C@H]3[C@@H](O)C[C@]2(C)[C@H]1C(=O)COC(=O)C(C)(C)C [Fluocortolone 21-pivalate]	70.30	100.0	medium to strong potencies	91.68	116.67	medium to strong potencies	–	–	–	–	–	–	–	–	Emax (% inhibition) [1, 10]: 97.91 ± 12.16 % inhibition; IC50 [1, 11]: 110 ± 40 µM; IC50 ([1]; from Hill equation, concentration that produced 50% of Emax, read-out: IC50 for inhibition of inflammatory cell infiltration in the dermis (M × 10^−4)): 110 µM; IC50 ([1]; read from concentration-response curve, concentration that inhibited 50% of the TPA effect, read-out: IC50 for inhibition of inflammatory cell infiltration in the dermis (M × 10^−4)): 110 µM; Emax (% inhibition) [2, 10]: 85.18 ± 9.51 % inhibition; IC50 [2, 11]: 40 ± 15 µM; IC50 ([2]; from Hill equation, concentration that produced 50% of Emax, read-out: IC50 for inhibition of epidermal thickening (M × 10^−4)): 40 µM; IC50 ([2]; read from concentration-response curve, concentration that inhibited 50% of the TPA effect, read-out: IC50 for inhibition of epidermal thickening (M × 10^−4)): 60 µM
CCCCC(=O)O[C@]1(C(=O)CO)[C@@H](C)C[C@H]2[C@@H]3CCC4=CC(=O)C=C[C@]4(C)[C@@]3(F)[C@@H](O)C[C@@]21C [Betamethasone valerate, betamethasone valerate]	266.66	169.23	strong to very strong anti-inflammatory effect	244.47	318.18	–	29	65	29 ± 3	73.5 ± 1.76	15	22	15 ± 2	82.2 ± 2.84	Potency for inhibition of TPA-induced epidermal hyperplasia (in words) [2]: strong to very strong potencies; also recorded: most potent agent
CC1(C)O[C@@H]2C[C@H]3[C@@H]4CCC5=CC(=O)C=C[C@]5(C)[C@@]4(F)[C@@H](O)C[C@]3(C)[C@]2(C(=O)CO)O1 [Triamcinolone acetonide]	198.28	157.14	–	32.45	50.0	–	39	70	39 ± 3	77.2 ± 1.26	113	140	113 ± 35	89.8 ± 6.4	–
CC(=O)OCC(=O)[C@@]1(O)CC[C@H]2[C@@H]3CCC4=CC(=O)CC[C@]4(C)[C@H]3[C@@H](O)C[C@@]21C [Hydrocortisone acetate, hydrocortisone acetate]	1.0	1.0	low to medium potencies	1.0	1.0	low to medium potencies	7730	11000	7730 ± 1380	79.4	3670	7000	3670 ± 1200	79.6 ± 7.62	–
CC1(C)O[C@@H]2C[C@H]3[C@@H]4CCC5=CC(=O)CC[C@]5(C)[C@@]4(F)[C@@H](O)C[C@]3(C)[C@]2(C(=O)CCl)O1 [Halcinonide]	249.45	183.33	medium to strong potencies	37.80	63.64	medium to strong potencies	31	60	31 ± 5	90.3 ± 6.29	97	110	97 ± 13	92.5 ± 2.98	–
